{"source": "patent EP0162545A2", "about": "“Enhanced bioconversion processes” (BETZ EUROPE, INC., priority 1984, dated 1985)", "key": {"Klebsiella [1]": {"test_system": "Klebsiella", "format": "cell-based", "procedure": "At 0.05 µg/mL level, TOC removal was equivalent to the untreated control. When BNS concentrations of 0.5 µg/mL were used, TOC removal ceased and in the second series of experiments, TOC levels increased sharply at 0.5 - 2 µg/mL concentrations of BNS. Similar results were obtained when BNS was used to treat bacteria growing in the glucose salts medium. No increases in TOC removal were seen. The TOC concentration increased rapidly at BNS concentration of 0.5 - 2 ppm only to fall back to control levels at 5 ppm. The cells then added TOC to the medium again from […] concentrations of BNS. This middle range spike in TOC (0.5-2 µg/mL BNS) was thought to be caused by excessive extra cellular polymer sloughing and limited cellular death as evidenced by the viability counts in the. 0.5 - 2 µg/mL BNS range. […] The dissolved oxygen concentration was decreased in the presence of BNS at concentrations of 0.05 - 1 µg/mL but at no concentration of BNS was the removal greater than the control level.\nThis set of experiments tends to make the BNS range of useful concentrations even lower than noted before. […] DO removal was seriously affected by concentrations of BNS that were ≥ 0.5 µg/mL. In short, it would appear that BNS would have to be used at concentrations ≤ 0.5 µg/mL in order to prevent the upset of a waste treatment facility by killing off the microbial populations. […]"}, "[2]": {"assay": "BNS breakdown kinetics in deionized water, spectrophotometric at 320 nm", "format": "physicochemical", "procedure": "BNS stock was composed of 10% BNS, 5% Triton X-114 and 85% carbitol acetate. BNS was diluted in deionized water to the appropriate 10X concentration desired. Breakdown kinetics were measured in a deionized H20/BNS system by spectrophotometric measurement at 320 nm and a BNS half life was determined to be 7 hours. Continuous and separate pumping of uncoupler was by a Masterflex 7552-10 peristalic pump (Cole Parmer, Chicago, IL) through silicon tubing lines into the bioreactor. Feed flow was split 90% organic feed, 10% BNS feed for total flow. New uncoupler feed was made up daily from the previously mentioned stock, since there was only 10% of the original BNS concentration left before the new daily solution of BNS feed was begun. BNS dose of 1, 2 and 5 ppm was based on the total bulk feed. Reservoir solutions were mixed constantly on a Fisher versamix magnetic stir plate at a speed of 0.4/1.0 to prevent settling out of chemical."}, "Klebsiella [3]": {"test_system": "Klebsiella", "assay": "microbe, parasite or virus in culture", "format": "cell-based", "procedure": "These patterns were the results of Klebsiella cultures having been grown on glucose (^14C-label). In nature, and in waste treatment facilities, many organic carbon compounds, both simple and complex, would be available for degradation. The known uncouplers and BNS were tested for their ability to increase C02 evolution from cultures exposed to the common substrates lactate, glycine, glycerol, and a denatured protein mixture. […] This was expected in the case of glycine but it was thought that a more complex protein might be degraded and portions used for some energyproduction. It was hoped that these compounds might be a more representative group (more abundant in waste treatment) than simple sugars for determining the extent of activity of BNS. […] Lactate, a common intermediate in microbial metabolism, and a compound which would normally be used as an oxidizable substrate for running the cytochrome chain, gave a more representative response. BNS treated cultures gave increased C02 blowoff (an increase as high as 130% at 5 µg/mL) as did both known uncouplers. […] When glycerol was used as the labeled substrate, BNS treated cultures gave increased C02 at concentrations up to 5 µg/mL.\nThe procedure used for determining the CO2 evolution was similar to the procedure described previously. Cells having been grown overnight in MSM and glucose were centrifuged and resuspended in MSM + glucose (cold) and used as inoculum. No other cold carbon source (unlabeled) was added. ^14C-labeled substrates (lactate, glycerol, etc.) obtained from New England Nuclear were used and supplied the radiolabeled carbon for the detection of ^14CO2. BNS was utilized in concentrations of 0.5 - 10 µg/mL. Fixed concentrations of 5 µg/mL CCCP and DNP were included for comparative purposes. The following data were obtained in these experiments."}}}
{"smiles": "O=[N+]([O-])C(Br)=Cc1ccccc1", "note": "[BNS, beta-bromo-beta-nitrostyrene]", "values": [{"measurement": "concentrations seriously affecting DO removal", "setting": "Klebsiella [1]", "value": "≥ 500", "unit": "ng/mL"}, {"measurement": "toxic concentration", "setting": "Klebsiella [1]", "value": "0.5 to 1", "unit": "µg/mL"}, {"measurement": "half-life", "setting": "[2]; deionized water, deionized H20/BNS system, 320 nm", "value": 7, "unit": "h"}, {"measurement": "original BNS concentration left", "setting": "[2]; diluted feed in deionized water, before the new daily solution", "value": 10, "unit": "%"}, {"measurement": "activation at 5 µg/mL", "setting": "Klebsiella [3]; Klebsiella, 14C-lactate as labeled substrate, 5 µg/mL, read-out: increase in C02 blowoff", "value": 130, "unit": "%"}, {"measurement": "concentrations giving increased C02", "setting": "Klebsiella [3]; glycerol as the labeled substrate", "value": "up to 5 µg/mL"}, {"measurement": "effect on CO2 evolution", "setting": "Klebsiella [3]; glycine as the labeled substrate", "value": "either no effect or a toxic effect"}]}
